Experimental data as given in PMC4754833, “Rilpivirine analogs potently inhibit drug-resistant HIV-1 mutants” (Retrovirology, 2016).

Legend:
[1] = test system: HIV-1 RT mutant G190S; experiment: single round infection assay, G190S; format: cell-based; settings: Human immunodeficiency virus 1
Experimental: (§1) The human osteosarcoma cell line, HOS, was obtained from Dr. Richard Schwartz (Michigan State University, East Lansing, MI) and grown in Dulbecco’s modified Eagle’s medium (Invitrogen, Carlsbad, CA) supplemented with 5 % (v/v) fetal bovine serum, 5 % newborn calf serum, and penicillin (50 units/ml) plus streptomycin (50 µg/ml; Quality Biological, Gaithersburg, MD). Virion production and single-round infectivity assays were used to determine antiviral activity (IC50 values) of the compounds as previously described.
(§2) pNLNgoMIVR-ΔEnv.LUC has been described previously. The RT open reading frame was removed from pNLNgoMIVR-ΔEnv.LUC (digestion with SpeI and SalI) and inserted between the SpeI and SalI sites of pBluescript II KS+. Using that construct as the wild-type template, we prepared the following HIV-1 RT mutants using the QuikChange II XL (Stratagene, La Jolla, CA) site-directed mutagenesis protocol kit: L100I, K103N, Y181C, Y188L, H221Y, K103N/Y181C, G190A, G190S, M230L, P236L, L100I/K103N, K103N/P225H, V106A/G190A/F227L, V106A, L234I, V106A/F227L, V106A/L234I, V106A/F227L/L234I, E40K, D67E, K101E, V111A, E138K, M184I, M184V, K101E/M184I, K101E/M184V, E138K/M184I, E138K/M184V, K101P, Y181I, and K101P/V179I. The following sense oligonucleotides were used with matching cognate antisense oligonucleotides (not shown) (Integrated DNA Technologies, Coralville, IA) in the mutagenesis: L100I, 5′-[…]-3′; L100I 2-103, 5′-[…]-3′; K103N, 5′-[…]-3′; Y181C, 5′-[…]-3′; Y188L, 5′-[…]-3′; H221Y, 5′-[…]-3′; G190A, 5′-[…]-3′; G190S, 5′-[…]-3′; P225H, 5′-[…]-3′; F227, 5′-[…]-3′; M230L, 5′-[…]-3′; P236L, 5′-[…]-3′; V106A, 5′-[…]-3′; L234I, 5′-[…]-3′; E40K, 5′-[…]-3′; D67E, 5′-[…]-3′; K101E, 5′-[…]-3′; V111A, 5′-[…]-3′; E138K, 5′-[…]-3′; M184I, 5′-[…]-3′; M184V, 5′-[…]-3′; K101P, 5′-[…]-3′; Y181I, 5′-[…]-3′; K101P/V179I, 5′-[…]-3′. The double mutants K103N/Y181C, K103N/P225H, and L100I/K103N were made using the previously generated K103N mutant and the appropriate oligonucleotides to add the second mutation, Y181C, P225, and L100I respectively. The double mutants V106A/F227L and V106A/L234I were prepared using the previously generated V106A mutant and the appropriate oligonucleotides to add the second mutation, F227L and L234I, respectively. The double mutants K101E/M184I and K101E/M184V were constructed using the previously generated K101E mutant and the appropriate oligonucleotides to add the second mutation, M184I and M184V, respectively. The double mutants E138K/M184I and E138K/M184V were constructed using the previously generated E138K mutant and the appropriate oligonucleotides for the second mutation, M184I and M184V, respectively. The triple mutant V106A/F227L/L234I was made using the previously generated V106A/F227L double mutant and the appropriate oligonucleotides for the third mutation, L234I. The triple mutant V106A/G190A/F227L was constructed in a series of steps using the previously generated V106A mutant and the appropriate oligonucleotides for the second mutation, G190A, to generate the double mutant V106A/G190A, and then the triple mutant was made using double mutant V106A/G190A and oligonucleotides for the third mutation, F227L. The DNA sequence of each construct was verified by DNA sequence determination. The sequences encoding the mutant RTs were then subcloned into pNLNgoMIVR-ΔEnv.LUC (between the KpnI and SalI sites) to produce the mutant HIV-1 constructs. These DNA sequences were also checked independently by DNA sequence determination.
(§3) 10.1186/s12977-016-0244-2 The IC50 values (nM) of RPV and the RPV analogs were determined against the NNRTI resistant mutants were measured by using a single round infection assay, n = 4. The concentrations (nM) are measured by reductions in luciferase reporter activity followed by the standard deviations. […]

[2] = test system: HIV-1 RT mutant V106A; experiment: single round infection assay, V106A; format: cell-based; settings: for fold-change of IC50 of the mutant relative to WT: V106A vs WT
Experimental: as §1, §2, §3

[3] = test system: HIV-1 RT mutant K101P/V179I; experiment: single round infection assay, K101P/V179I; format: cell-based; settings: for IC50: Human immunodeficiency virus 1; for fold-change of IC50 of the mutant relative to WT: K101P/V179I vs WT
Experimental: as §1, §2, §3

[4] = test system: HIV-1 RT mutant L100I/K103N; experiment: single round infection assay, L100I/K103N; format: cell-based; settings: for IC50: ± SD, n=4, limit of detection 100 nM; for fold-change of IC50 of the mutant relative to WT: L100I/K103N vs WT
Experimental: as §1, §2, §3

[5] = test system: HIV-1 RT mutant P236L; experiment: single round infection assay, P236L; format: cell-based; settings: for IC50: Human immunodeficiency virus 1; for fold-change of IC50 of the mutant relative to WT: P236L vs WT
Experimental: as §1, §2, §3

[6] = test system: HIV-1 RT mutant V106A/F227L/L234I; experiment: single round infection assay, V106A/F227L/L234I; format: cell-based; settings: V106A/F227L/L234I vs WT
Experimental: as §1, §2, §3

[7] = test system: HIV-1 RT mutant G190A; experiment: single round infection assay, G190A; format: cell-based; settings: for IC50: Human immunodeficiency virus 1; for fold-change of IC50 of the mutant relative to WT: G190A vs WT
Experimental: as §1, §2, §3

[8] = test system: HIV-1 RT mutant K101E/M184V; experiment: single round infection assay, K101E/M184V; format: cell-based; settings: for IC50: ± SD, n=4; for fold-change of IC50 of the mutant relative to WT: K101E/M184V vs WT
Experimental: as §1, §2, §3

[9] = test system: HIV-1 RT mutant K101E/M184I; experiment: single round infection assay, K101E/M184I; format: cell-based; settings: for IC50: ± SD, n=4; for fold-change of IC50 of the mutant relative to WT: K101E/M184I vs WT
Experimental: as §1, §2, §3

[10] = test system: HIV-1 RT mutant V106A/F227L; experiment: single round infection assay, V106A/F227L; format: cell-based; settings: for fold-change of IC50 of the mutant relative to WT: V106A/F227L vs WT; for IC50: ± SD, n=4
Experimental: as §1, §2, §3

[11] = test system: HIV-1 RT mutant K103N; parameters: method as in PMID 23217210; settings: previous study; cited from earlier work
[12] = test system: HIV-1 RT mutant L100I; parameters: method as in PMID 23217210; settings: previous study; cited from earlier work
[13] = test system: HIV-1 RT mutant Y181C; parameters: method as in PMID 23217210; settings: previous study; cited from earlier work
[14] = Human immunodeficiency virus 1, L100I/K103N
[15] = Human immunodeficiency virus 1, K101E/M184V
[16] = Human immunodeficiency virus 1, K101E/M184I
[17] = Human immunodeficiency virus 1, V106A/F227L (selected by DOR)

| SMILES | IC50 [1] [nM] | IC50 [3] [nM] | IC50 [4, 14] [nM] | IC50 [5] [nM] | fold-change of IC50 of the mutant relative to WT [6] | IC50 [7] [nM] | IC50 [8, 15] [nM] | fold-change of IC50 of the mutant relative to WT [8] | IC50 [9, 16] [nM] | fold-change of IC50 of the mutant relative to WT [10] | fold-change of IC50 of the mutant relative to WT [2] | IC50 [11] [nM] | fold-change of IC50 of the mutant relative to WT [3] | fold-change of IC50 of the mutant relative to WT [4] | IC50 [12] [nM] | fold-change of IC50 of the mutant relative to WT [7] | fold-change of IC50 of the mutant relative to WT [9] | IC50 [13] [nM] | IC50 [10, 17] [nM] | IC50 ([10]; V106A/F227L (selected by DOR)) [nM] | further results |
| --- | --- | --- | --- | --- | --- | --- | --- | --- | --- | --- | --- | --- | --- | --- | --- | --- | --- | --- | --- | --- | --- |
| Cc1cc(/C=C/C#N)cc(C)c1Nc1ncc2ncn(-c3ccc(C#N)cc3)c2n1 [compound 26] | 2.1 | > 100 | > 100 | 2.91 | 5 | 2.2 | 9.1 ± 0.1 | < 2 | 7.3 ± 1.8 | 8 | – | – | – | – | – | – | – | – | – | – | IC50 ([2]; Human immunodeficiency virus 1, V106A (selected by DOR), ± SD, n=4): 4.9 ± 1.3 nM |
| Cc1cc(/C=C/C#N)cc(C)c1Nc1ccnc(Nc2ccc(C#N)cc2)n1 [RPV, rilpivirine] | 0.11 ± 0.01 | 93.5 ± 12.1 | – | 0.2 | – | 0.4 ± 0.08 | – | – | – | 3 | < 2 | < 7 | 390 | 10 | < 7 | < 2 | 3 | < 7 | – | – | – |
| Cc1cc(/C=C/C#N)cc(C)c1Nc1nc(Nc2ccc(C#N)cc2)c2nc[nH]c2n1 [compound 13] | 0.12 | > 100 | – | 0.31 ± 0.02 | – | 0.3 ± 0.04 | – | 2 | – | < 2 | – | < 7 | – | 2 | < 7 | < 2 | < 2 | < 7 | – | – | fold-change of IC50 of the mutant relative to WT [5]: < 2 |
| COc1ccc(Cn2cnc3c(Nc4ccc(C#N)cc4)nc(Nc4c(C)cc(/C=C/C#N)cc4C)nc32)cc1 [compound 12] | 0.37 ± 0.02 | > 100 | < 5.4 | 0.8 ± 0.2 | < 2 | 0.9 ± 0.43 | 1.8 ± 0.21 | 3 | 2.7 ± 0.71 | 11 | < 2 | < 7 | – | 6 | < 7 | < 2 | 4 | < 7 | < 5 | 7.6 ± 0.5 | IC50 ([4]; L100I/K103N): 4.3 ± 2.6 nM; fold-change of IC50 of the mutant relative to WT [5]: < 2 |
| Cc1cc(/C=C/C#N)cc(C)c1Nc1nc(Nc2ccc(C#N)cc2)ncc1N [compound 7] | 0.4 ± 0.07 | 81.4 ± 8.1 | – | 0.22 ± 0.06 | – | 0.3 | – | – | < 2.5 | < 2 | – | < 7 | 104 | 2 | < 7 | – | < 2 | < 7 | – | – | IC50 ([9]; K101E/M184I): 1.3 ± 0.6 nM |
| Cc1cc(/C=C/C#N)cc(C)c1-n1cnc2cnc(Nc3ccc(C#N)cc3)nc21 [compound 27] | 0.1 ± 0.01 | 16.6 | 39.8 | 0.2 ± 0.04 | < 2 | 0.2 ± 0.1 | – | < 2 | – | 5 | – | < 7 | 29 | 69 | < 7 | – | – | < 7 | < 5 | 2.9 ± 0.3 | – |
| Cc1cc(/C=C/C#N)cc(C)c1Nc1nc(Nc2ccc(C(F)(F)F)cc2)c2nc[nH]c2n1 [compound 15] | 0.35 ± 0.05 | > 100 | 15.5 | 0.9 ± 0.08 | – | 0.77 ± 0.19 | < 6 | 2 | – | – | < 2 | < 7 | – | 9 | < 7 | – | < 2 | < 7 | – | – | IC50 ([8]; K101E/M184V): 3.8 ± 0.42 nM |
| Cc1cc(/C=C/C#N)cc(C)c1Nc1ncc([N+](=O)[O-])c(Nc2ccc(C#N)cc2)n1 [compound 8] | 0.17 ± 0.02 | 29.8 ± 5.4 | < 5.4 | 0.61 ± 0.07 | < 2 | 0.24 ± 0.04 | – | – | < 6 | 4 | – | < 7 | 19 | 3 | < 7 | – | 4 | < 7 | < 5 | 6.3 ± 2 | IC50 ([4]; L100I/K103N): 5.4 ± 0.35 nM; IC50 ([9]; K101E/M184I): 6 ± 1.6 nM |
| Cc1cc(/C=C/C#N)cc(C)c1Nc1nc(Nc2ccc(C#N)cc2)ncc1[N+](=O)[O-] [compound 6] | 0.2 ± 0.09 | 12.6 | – | 0.23 ± 0.06 | 2 | 0.2 ± 0.09 | – | 2 | – | 4 | – | < 7 | 25 | 4 | < 7 | – | < 2 | < 7 | – | – | – |
